For orientation: efflux ratio means a quotient of directional permeabilities that is used to spot active efflux. By fraction unbound is commonly meant free concentration divided by total concentration. A low value points to extensive binding. For orientation: IC50 means the concentration at which inhibition is half-maximal.

This note sets out measurements from ChEMBL document CHEMBL4371076 (J Med Chem, 2019).

The nature of data set [1]: Efflux ratio of permeability in human Caco2 cells. In kind it is ADME, cell-based. The settings on record: Caco-2. On the technique in general: Caco-2 monolayers are a common model of the intestinal barrier.
The nature of data set [2]: Permeability from basolateral to apical side in human Caco2 cells. Type of data set: ADME, cell-based. As to conditions: Caco-2, read-out: permeability; call rule not given here.
The nature of data set [3]: Metabolic stability in mouse liver microsomes assessed as parent compound remaining at 0.5 uM after 10 mins. In kind it is ADME, Microsome. The settings on record: read-out: Stability. In general terms: Microsomes from liver hold many membrane-bound enzymes, among them those of drug oxidation.
A short description of data set [4]: Fraction unbound in human plasma. In kind it is ADME, cell-free.
Data set [5] concerns the target T1, Cytochrome P450 2C9 (Homo sapiens, UniProt P11712). Kind of data set: Inhibition of CYP2C9 in human liver microsomes. As to conditions: human, microsomes. In kind it is ADME.
Data set [6] has as its target T2, Cytochrome P450 3A4 (Homo sapiens, UniProt P08684). Kind of data set: Time-dependant inhibition of CYP3A4 in human liver microsomes. Type of data set: ADME.
Data set [7] has as its target T1, Cytochrome P450 2C9. Briefly: Time-dependant inhibition of CYP2C9 in human liver microsomes. Type of data set: ADME.
Data set [8] has as its target T3, Cytochrome P450 2C8 (Homo sapiens, UniProt P10632).
T3 sequence (P10632 whole entry): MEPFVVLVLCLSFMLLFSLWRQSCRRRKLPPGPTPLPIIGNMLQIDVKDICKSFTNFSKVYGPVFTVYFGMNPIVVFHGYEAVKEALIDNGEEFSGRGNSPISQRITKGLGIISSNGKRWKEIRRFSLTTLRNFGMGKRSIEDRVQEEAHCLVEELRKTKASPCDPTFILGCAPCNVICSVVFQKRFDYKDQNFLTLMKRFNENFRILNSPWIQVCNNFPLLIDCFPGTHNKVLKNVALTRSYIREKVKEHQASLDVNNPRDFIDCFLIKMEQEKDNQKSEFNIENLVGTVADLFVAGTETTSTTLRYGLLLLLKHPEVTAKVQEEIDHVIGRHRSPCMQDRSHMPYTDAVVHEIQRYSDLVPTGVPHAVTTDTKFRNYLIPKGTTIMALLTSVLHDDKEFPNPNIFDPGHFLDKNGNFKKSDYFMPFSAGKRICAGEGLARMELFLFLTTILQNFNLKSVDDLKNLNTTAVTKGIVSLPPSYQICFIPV
Briefly: Inhibition of CYP2C8 in human liver microsomes. In kind it is ADME. The settings on record: human, microsomes.

The target in data set [9] is T4, Cytochrome P450 2C19 (Homo sapiens, UniProt P33261). Kind of data set: Inhibition of CYP2C19 in human liver microsomes. In kind it is ADME. The settings on record: human, microsomes.
Data set [10] concerns the target T5, Cytochrome P450 2D6 (Homo sapiens, UniProt P10635). Kind of data set: Inhibition of CYP2D6 in human liver microsomes. The settings on record: human, microsomes. Type of data set: ADME.
In data set [11] the target is T5, Cytochrome P450 2D6. Kind of data set: Time-dependant inhibition of CYP2D6 in human liver microsomes. Type of data set: ADME.
A short description of data set [12]: Metabolic stability in rat liver microsomes assessed as parent compound remaining at 0.5 uM after 10 mins. Type of data set: ADME, Microsome. As to conditions: read-out: Stability.
Data set [13] deals with T2, Cytochrome P450 3A4. Briefly: Inhibition of CYP3A4 in human liver microsomes. In kind it is ADME. As to conditions: human, microsomes.
Data set [14] addresses Sodium channel protein type 5 subunit alpha (Homo sapiens, UniProt Q14524). Kind of data set: Inhibition of human Nav1.5 expressed in HEK293 cells after 600 secs at -50 mV holding potential by ion works barracuda population patch clamp method. Type of data set: cell-based. (In patch-clamp work, channel activity is measured electrically.)
Data set [15] deals with T6, Sodium channel protein type 9 subunit alpha (Homo sapiens, UniProt Q15858). Kind of data set: Inhibition of recombinant human Nav1.7 expressed in HEK293 cells at -70 mV holding potential by patch clamp electrophysiology method. Type of data set: cell-based.
For data set [16], the target named is T7, Cytochrome P450 2B6 (Homo sapiens, UniProt P20813).
T7 sequence (P20813 whole entry): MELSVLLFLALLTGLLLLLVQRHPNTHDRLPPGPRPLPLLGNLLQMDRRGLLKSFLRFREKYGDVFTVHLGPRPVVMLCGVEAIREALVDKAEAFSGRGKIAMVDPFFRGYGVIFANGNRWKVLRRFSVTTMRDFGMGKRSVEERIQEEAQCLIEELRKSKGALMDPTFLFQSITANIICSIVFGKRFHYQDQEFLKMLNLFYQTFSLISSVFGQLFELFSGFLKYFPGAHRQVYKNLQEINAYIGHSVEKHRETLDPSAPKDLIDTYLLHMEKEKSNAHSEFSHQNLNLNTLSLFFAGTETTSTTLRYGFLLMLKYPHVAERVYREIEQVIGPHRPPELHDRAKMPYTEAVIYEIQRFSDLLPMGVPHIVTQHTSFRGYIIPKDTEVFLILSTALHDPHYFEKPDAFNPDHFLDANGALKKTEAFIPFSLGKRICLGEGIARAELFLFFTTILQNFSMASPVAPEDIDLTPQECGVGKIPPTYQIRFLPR
Briefly: Inhibition of CYP2B6 in human liver microsomes. As to conditions: human, microsomes. In kind it is ADME.

The nature of data set [17]: Metabolic stability in human liver microsomes assessed as parent compound remaining at 0.5 uM after 10 mins. In kind it is ADME, Microsome. The settings on record: read-out: Stability.
Data set [18] in a line: Fraction unbound in mouse plasma. Type of data set: ADME, cell-free.
Data set [19] has as its target T4, Cytochrome P450 2C19. Kind of data set: Time-dependant inhibition of CYP2C19 in human liver microsomes. Type of data set: ADME.
Data set [20] addresses T7, Cytochrome P450 2B6. Kind of data set: Time-dependant inhibition of CYP2B6 in human liver microsomes. In kind it is ADME.
The nature of data set [21]: Permeability from apical to basolateral side in human Caco2 cells. In kind it is ADME, cell-based. The settings on record: Caco-2, read-out: permeability.
Data set [22] has as its target T3, Cytochrome P450 2C8. Kind of data set: Time-dependant inhibition of CYP2C8 in human liver microsomes. Type of data set: ADME.
Data set [23] deals with T6, Sodium channel protein type 9 subunit alpha. Briefly: Inhibition of human Nav1.7 expressed in HEK293 cells after 600 secs at -60 mV holding potential by ion works barracuda population patch clamp method. Type of data set: cell-based.
The nature of data set [24]: Permeability of the compound at pH 7.4 by PAMPA. Type of data set: ADME. As to conditions: read-out: permeability.
The nature of data set [25]: Permeability of the compound at pH 5.5 by PAMPA. In kind it is ADME. As to conditions: read-out: permeability.

T5 sequence (P10635 whole entry): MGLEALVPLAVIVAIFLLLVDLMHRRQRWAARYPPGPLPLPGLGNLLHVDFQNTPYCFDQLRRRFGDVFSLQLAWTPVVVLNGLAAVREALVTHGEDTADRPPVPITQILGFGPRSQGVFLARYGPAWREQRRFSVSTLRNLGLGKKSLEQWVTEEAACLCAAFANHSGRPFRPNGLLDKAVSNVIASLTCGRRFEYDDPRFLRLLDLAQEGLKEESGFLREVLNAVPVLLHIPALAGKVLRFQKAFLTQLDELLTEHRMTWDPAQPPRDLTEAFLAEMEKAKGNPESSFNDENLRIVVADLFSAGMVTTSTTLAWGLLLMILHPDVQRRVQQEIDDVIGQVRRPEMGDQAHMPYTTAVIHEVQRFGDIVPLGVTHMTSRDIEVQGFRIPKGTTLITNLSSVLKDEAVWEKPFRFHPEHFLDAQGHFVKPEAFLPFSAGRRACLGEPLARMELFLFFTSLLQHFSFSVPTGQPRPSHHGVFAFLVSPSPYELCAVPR
T6 sequence (Q15858 whole entry): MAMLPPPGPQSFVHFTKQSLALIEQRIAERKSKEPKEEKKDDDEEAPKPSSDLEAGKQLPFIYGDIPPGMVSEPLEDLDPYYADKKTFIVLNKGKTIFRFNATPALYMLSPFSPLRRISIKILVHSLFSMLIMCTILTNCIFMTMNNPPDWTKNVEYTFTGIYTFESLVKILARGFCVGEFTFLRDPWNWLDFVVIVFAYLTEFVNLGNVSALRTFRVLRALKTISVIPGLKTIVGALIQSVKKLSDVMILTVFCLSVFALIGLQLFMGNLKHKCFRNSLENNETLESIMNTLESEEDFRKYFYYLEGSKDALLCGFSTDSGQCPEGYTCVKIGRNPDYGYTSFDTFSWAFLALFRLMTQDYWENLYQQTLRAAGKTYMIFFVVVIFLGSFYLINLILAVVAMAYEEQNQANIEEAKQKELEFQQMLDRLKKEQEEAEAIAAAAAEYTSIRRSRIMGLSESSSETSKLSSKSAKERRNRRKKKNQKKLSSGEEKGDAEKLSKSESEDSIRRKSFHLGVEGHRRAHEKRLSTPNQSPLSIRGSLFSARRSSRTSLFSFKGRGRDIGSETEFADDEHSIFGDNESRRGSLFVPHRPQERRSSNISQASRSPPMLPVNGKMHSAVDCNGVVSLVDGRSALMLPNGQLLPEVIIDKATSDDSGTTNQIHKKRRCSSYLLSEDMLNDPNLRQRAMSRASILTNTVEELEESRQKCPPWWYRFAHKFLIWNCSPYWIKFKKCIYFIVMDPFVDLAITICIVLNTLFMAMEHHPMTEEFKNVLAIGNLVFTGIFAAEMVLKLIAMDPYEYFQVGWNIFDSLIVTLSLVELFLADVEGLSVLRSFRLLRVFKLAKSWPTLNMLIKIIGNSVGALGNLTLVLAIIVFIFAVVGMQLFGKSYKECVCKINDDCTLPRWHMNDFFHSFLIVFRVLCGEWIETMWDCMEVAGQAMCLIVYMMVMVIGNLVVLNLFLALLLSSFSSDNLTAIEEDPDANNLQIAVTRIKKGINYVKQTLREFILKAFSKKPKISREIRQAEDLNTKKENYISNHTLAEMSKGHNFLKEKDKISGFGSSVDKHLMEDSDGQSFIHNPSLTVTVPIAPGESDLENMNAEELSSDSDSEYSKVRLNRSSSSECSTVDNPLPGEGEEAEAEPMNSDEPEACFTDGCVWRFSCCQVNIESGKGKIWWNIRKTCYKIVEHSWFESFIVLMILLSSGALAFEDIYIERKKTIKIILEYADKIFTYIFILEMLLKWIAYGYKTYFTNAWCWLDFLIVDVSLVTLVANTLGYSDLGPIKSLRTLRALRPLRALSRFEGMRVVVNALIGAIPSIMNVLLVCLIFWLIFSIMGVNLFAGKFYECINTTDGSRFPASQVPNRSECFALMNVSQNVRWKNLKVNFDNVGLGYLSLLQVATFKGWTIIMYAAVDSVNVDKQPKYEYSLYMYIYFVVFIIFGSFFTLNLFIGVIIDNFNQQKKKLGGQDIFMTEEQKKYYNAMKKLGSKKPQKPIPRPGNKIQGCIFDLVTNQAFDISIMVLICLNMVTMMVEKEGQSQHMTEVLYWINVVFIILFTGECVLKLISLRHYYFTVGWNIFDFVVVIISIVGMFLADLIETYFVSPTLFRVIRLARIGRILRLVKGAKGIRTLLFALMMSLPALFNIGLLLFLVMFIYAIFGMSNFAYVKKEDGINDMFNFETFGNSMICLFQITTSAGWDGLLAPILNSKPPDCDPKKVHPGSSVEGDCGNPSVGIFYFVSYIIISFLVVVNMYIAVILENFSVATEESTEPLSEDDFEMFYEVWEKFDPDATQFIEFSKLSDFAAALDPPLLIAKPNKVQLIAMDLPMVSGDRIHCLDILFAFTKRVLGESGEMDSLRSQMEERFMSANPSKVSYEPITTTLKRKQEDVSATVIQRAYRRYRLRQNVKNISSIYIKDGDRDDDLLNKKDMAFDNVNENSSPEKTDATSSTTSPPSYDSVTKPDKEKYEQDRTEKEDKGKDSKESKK
T1 sequence (P11712 whole entry): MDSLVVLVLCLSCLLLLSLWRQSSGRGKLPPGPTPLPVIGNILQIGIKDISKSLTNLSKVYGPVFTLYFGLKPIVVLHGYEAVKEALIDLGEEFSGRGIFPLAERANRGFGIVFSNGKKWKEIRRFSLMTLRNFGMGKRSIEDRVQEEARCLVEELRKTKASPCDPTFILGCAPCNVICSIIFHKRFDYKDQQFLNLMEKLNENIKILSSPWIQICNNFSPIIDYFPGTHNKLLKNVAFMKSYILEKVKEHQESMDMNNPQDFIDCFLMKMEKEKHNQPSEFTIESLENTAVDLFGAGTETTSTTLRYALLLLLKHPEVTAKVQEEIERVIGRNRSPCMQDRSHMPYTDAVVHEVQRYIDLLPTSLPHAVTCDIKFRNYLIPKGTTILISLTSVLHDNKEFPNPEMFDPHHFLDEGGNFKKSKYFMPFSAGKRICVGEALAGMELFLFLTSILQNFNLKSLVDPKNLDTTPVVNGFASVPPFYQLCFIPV
T2 sequence (P08684 whole entry): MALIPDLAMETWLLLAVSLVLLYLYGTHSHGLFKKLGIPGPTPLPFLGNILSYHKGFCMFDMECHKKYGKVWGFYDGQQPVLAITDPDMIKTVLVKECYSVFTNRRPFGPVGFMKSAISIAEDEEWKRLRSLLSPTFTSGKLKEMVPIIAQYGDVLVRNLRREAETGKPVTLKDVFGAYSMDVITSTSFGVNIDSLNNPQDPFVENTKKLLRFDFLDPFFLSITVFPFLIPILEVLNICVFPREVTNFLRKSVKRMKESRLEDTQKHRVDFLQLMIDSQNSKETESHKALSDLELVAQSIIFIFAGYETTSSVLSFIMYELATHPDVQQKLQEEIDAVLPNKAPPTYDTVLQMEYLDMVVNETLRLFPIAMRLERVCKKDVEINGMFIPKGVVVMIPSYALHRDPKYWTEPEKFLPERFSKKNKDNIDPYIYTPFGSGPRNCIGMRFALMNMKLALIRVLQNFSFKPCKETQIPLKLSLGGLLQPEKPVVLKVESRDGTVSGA
T4 sequence (P33261 whole entry): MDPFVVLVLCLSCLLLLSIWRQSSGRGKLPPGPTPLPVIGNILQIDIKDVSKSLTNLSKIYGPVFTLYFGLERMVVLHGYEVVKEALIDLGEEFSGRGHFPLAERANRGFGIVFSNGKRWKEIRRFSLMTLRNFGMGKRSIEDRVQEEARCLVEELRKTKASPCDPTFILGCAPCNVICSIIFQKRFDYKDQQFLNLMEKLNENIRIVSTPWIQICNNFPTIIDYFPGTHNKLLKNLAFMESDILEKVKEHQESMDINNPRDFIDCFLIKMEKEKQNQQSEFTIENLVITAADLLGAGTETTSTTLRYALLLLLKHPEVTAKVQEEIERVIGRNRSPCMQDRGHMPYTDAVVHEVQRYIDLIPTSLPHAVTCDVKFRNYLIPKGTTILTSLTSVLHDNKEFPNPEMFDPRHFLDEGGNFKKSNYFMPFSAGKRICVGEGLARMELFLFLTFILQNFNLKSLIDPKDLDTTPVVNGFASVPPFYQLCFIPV

`CC(C)Cc1ccc(-c2cn(C)c3cc(C(=O)NS(C)(=O)=O)ccc23)cc1`: the efflux ratio in data set [1] is over 6.2. Besides, the Papp B→A in data set [2] was determined as 7.8 ×10⁻⁶ cm/s. Besides, the remaining at 10 min, 0.5 µM in [3] was 100%; in data set [12], 94%; in [17], 100%. The fraction unbound stood at 0.001 in [4] and 0.003 in data set [18]. Besides, the “inhibition (INH)” value in data set [5], in data set [8], in data set [9], in [10], in [13] and in [16] was “Not Active” throughout. Also, the TDI entry in data set [6], in data set [7], in [11], in data set [19], in data set [20] and in [22] was “Not Active” throughout. In addition, the IC50 in [14] was over 30000 nM; in [15], 23 nM. In addition, the Papp A→B in [21] was under 1.5 ×10⁻⁶ cm/s.

Regarding `Cn1cc(-c2ccc(C(F)(F)F)cc2)c2ccc(C(=O)NS(C)(=O)=O)cc21`, the efflux ratio in data set [1] is over 5.1. Moreover, the Papp B→A in data set [2] is 7.6 ×10⁻⁶ cm/s. For the same compound, the remaining at 10 min, 0.5 µM in [3] amounted to 54%; in [12], 74%; in data set [17] it was 100%. Further, the fraction unbound in data set [4] and in data set [18] was under 0.001 each time. In addition, the “inhibition (INH)” value in [5], in data set [8], in data set [9], in data set [10], in data set [13] and in [16] was “Not Active” throughout. In addition, the TDI entry in [6], in data set [7], in [11], in [19], in data set [20] and in data set [22] was “Not Active” throughout. The IC50 in data set [23] was determined as 88 nM; in data set [15], 96 nM. The figures for the Papp in data set [24] and in data set [25] were 17.1 ×10⁻⁶ cm/s and 97.2 ×10⁻⁶ cm/s, respectively. The Papp A→B in [21] was under 1.5 ×10⁻⁶ cm/s.

For `CC(C)COc1ncc(-c2cn(C)c3cc(C(=O)NS(C)(=O)=O)c(F)cc23)cc1Cl`, the efflux ratio in data set [1] worked out at 3.4. Further, the Papp B→A in [2] stood at 6.7 ×10⁻⁶ cm/s. The remaining at 10 min, 0.5 µM worked out at 100% in [3], 85% in data set [12] and 100% in data set [17]. Further, the fraction unbound in [4] worked out at 0.001; in data set [18], 0.002. Besides, the “inhibition (INH)” value in data set [5], in [8], in data set [9], in data set [10], in data set [13] and in [16] was “Not Active” throughout. Further, the TDI result in [6], in [7], in data set [11], in data set [19], in [20] and in data set [22] was “Not Active” throughout. Moreover, the IC50 in data set [15] was 1.1 nM. Besides, the figures for the Papp in [24] and in [25] were 20.5 ×10⁻⁶ cm/s and 49.5 ×10⁻⁶ cm/s, respectively. Also, the Papp A→B in data set [21] was found to be 2 ×10⁻⁶ cm/s.

Take `Cn1nc(-c2ccc(C(F)(F)F)cc2)c2cc(F)c(C(=O)NS(=O)(=O)C3CC3)cc21`: in data set [1], the efflux ratio was over 21. Further, in data set [2], the Papp B→A came out at 31.2 ×10⁻⁶ cm/s. Besides, the remaining at 10 min, 0.5 µM in [3], in data set [12] and in [17] was 100% throughout. Moreover, the “inhibition (INH)” value in [5], in [8], in data set [9], in data set [10], in data set [13] and in data set [16] was “Not Active” each time. Further, the TDI entry in data set [6], in [7], in data set [11], in data set [19], in [20] and in [22] was “Not Active” each time. For the same compound, the IC50 in data set [23] worked out at 13 nM; in data set [14] it was 6400 nM; in data set [15], 21 nM. Moreover, the fraction unbound in [18] amounted to 0.008. Further, the Papp in [24] was 10.2 ×10⁻⁶ cm/s; in data set [25] it was 59.2 ×10⁻⁶ cm/s. Besides, in [21], the Papp A→B was under 1.5 ×10⁻⁶ cm/s.

On to `Cn1cc(-c2cnc(OCC3CC3)c(Cl)c2)c2ccc(C(=O)NS(=O)(=O)C3CC3)cc21`, for which the efflux ratio in [1] is over 7.6. In addition, the Papp B→A in data set [2] was 11.4 ×10⁻⁶ cm/s. Moreover, the remaining at 10 min, 0.5 µM came out at 93% in [3], 77% in data set [12] and 97% in data set [17]. The figures for the fraction unbound in data set [4] and in [18] were under 0.001 and 0.002, respectively. The “inhibition (INH)” value in data set [5], in data set [8], in [9], in data set [10], in data set [13] and in data set [16] was “Not Active” each time. For the same compound, the TDI entry in [6], in data set [7], in [11], in data set [19], in data set [20] and in data set [22] was “Not Active” in each case. Also, the IC50 in [23] is 82 nM; in [15] it was 27 nM. Also, the Papp in data set [24] came to 39.1 ×10⁻⁶ cm/s. In addition, the Papp A→B in data set [21] was under 1.5 ×10⁻⁶ cm/s.

With `Cn1cc(-c2ccc(C(F)(F)F)cc2)c2cc(F)c(C(=O)NS(C)(=O)=O)cc21`, in [1], the efflux ratio stood at 6.1. Moreover, in [2], the Papp B→A turned out to be 12.5 ×10⁻⁶ cm/s. Also, the figures for the remaining at 10 min, 0.5 µM in [3], in data set [12] and in [17] were 95%, 99% and 97%, respectively. Further, the fraction unbound in data set [4] is 0.002; in data set [18], 0.005. In addition, the “inhibition (INH)” value in data set [5], in data set [8], in data set [9], in [10], in data set [13] and in [16] was “Not Active” each time. The TDI result in [6], in data set [7], in data set [11], in [19], in data set [20] and in data set [22] was “Not Active” throughout. In data set [15], the IC50 was 13 nM. For the same compound, the Papp in [24] turned out to be 14 ×10⁻⁶ cm/s; in [25], 71.2 ×10⁻⁶ cm/s. Also, the Papp A→B in data set [21] was determined as 2 ×10⁻⁶ cm/s.
